Data published in patent US6423508B1, “Polynucleotide sequences of human EDG-1c” (SmithKline Beecham Corporation, priority 1998, dated 2002).
Read-outs that look alike come from different tables or passages of the source. One block for each molecule: values may come before it.

How the values were obtained:
[1] = tested on: endogenous receptors of RBL 2H3 cells; experiment: Responses of control ligands of endogenous receptors in RBL 2H3 EDG-1c cells (calcium mobilization, FLIPR); type: cell-based; conditions: FIG. 8
Method: (§1) A number of cell lines were examined to identify one that would not respond to S-1-P through an endogenous receptor. […] Stable cell lines of the EDG1-c receptor were prepared in RBL 2H3 cell line. The expression of functionally active clones were followed using Fluorescent imaging plate reader (FLIPR).

[2] = tested on: untransfected HEK 293 cells (endogenous receptors that respond to S-1-P); experiment: S-1-P-induced Ca2+ mobilization in untransfected HEK 293 cells (FLIPR); type: cell-based; conditions: FIG. 3
Source text: The data were generated with the 96 well Fluorescent Imaging Plate Reader (FLIPR). Each point is the mean of 6-8 wells read on FLIPR.

human EDG-1c receptor [3] = biological target: T1, human EDG-1c receptor (Homo sapiens, UniProt P21453); experiment: S-1-P-induced FUS1-LacZ reporter gene expression in yeast expressing human EDG-1c; type: cell-based; conditions: yeast FUS1-LacZ cells expressing human EDG-1c, FIG. 5
T1 construct: expressed in transfected cells
Source text: The yeast strain(s) used contain mutations in genes in the pheromone response pathway, e.g., (i) deletion of the STE2 or STE3 gene encoding the endogenous G-protein coupled pheromone receptors; (ii) deletion of the FAR1 gene encoding a protein that normally associates with cyclin-dependent kinases leading to cell cycle arrest; and (iii) construction of reporter genes fused to the FUS1 gene promoter (where FUS1 encodes a membrane-anchored glycoprotein required for cell fusion). The downstream reporter (FUS1-LacZ) permits a colorimetric or fluorimetric readout in response to ligand.

[4] = tested on: rat neonatal cardiomyocytes; experiment: Cellular hypertrophy in rat neonatal cardiomyocytes in culture; type: cell-based
Method: […] was tested in its ability to induce hypertrophy in an in vitro neonatal cardiomyocyte model. The assessment of cardiomyocyte hypertrophy is measured using four different parameters: protein synthesis (tritiated phenylalanine incorporation and protein content increase), tritiated thymidine incorporation (evaluation of fibroblast contamination), Brain Natriuretic Peptide (BNP) release and morphological parameters. Phenylephrine (PE) at 100 μM concentration is used as internal control experiments. […] Cardiomyocytes in culture display features of myocyte hypertrophy observed in vivo, such as changes in morphology (vizualised using light microscopy after staining with crystal violet), protein content, and pattern of gene expression.

[5] = tested on: isolated perfused rabbit heart; experiment: Functional effects on isolated perfused rabbit heart; conditions: 10 nM
Method: The functional effects of […] have been examined in isolated perfused rabbit heart. […] An increased in AoP (aortic pressure), reflecting a vasoconstrictor effect was observed, i.e., about 30% of increase at 5 min of treatment compared to the vehicle (methanol 0.001%).

human EDG-1c receptor [6] = biological target: T1, human EDG-1c receptor; experiment: Calcium mobilization in RBL 2H3 cells stably transfected with human EDG-1c receptor (FLIPR); type: cell-based
Method: as §1

T1 sequence (P21453 whole entry): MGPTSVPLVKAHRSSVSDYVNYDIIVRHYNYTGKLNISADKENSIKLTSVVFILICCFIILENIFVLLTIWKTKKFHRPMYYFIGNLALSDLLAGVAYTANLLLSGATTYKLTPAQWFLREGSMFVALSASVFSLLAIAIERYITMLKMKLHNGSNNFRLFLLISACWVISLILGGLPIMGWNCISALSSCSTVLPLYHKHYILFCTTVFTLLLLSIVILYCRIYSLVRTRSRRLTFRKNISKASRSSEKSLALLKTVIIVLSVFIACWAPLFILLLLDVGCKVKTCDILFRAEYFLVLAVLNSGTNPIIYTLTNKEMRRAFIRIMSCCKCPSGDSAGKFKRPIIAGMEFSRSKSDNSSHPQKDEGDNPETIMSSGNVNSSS

Molecule: Nc1ncnc2c1ncn2[C@@H]1O[C@H](COP(=O)(O)OP(=O)(O)OP(=O)(O)O)[C@@H](O)[C@H]1O [ATP]
EC50 of endogenous-receptor ligands [1]: expected EC50 values

Molecule: C[C@@H]1O[C@H](C[N+](C)(C)C)C[C@H]1O [Muscarine]
response of RBL 2H3 EDG-1c cells to control ligand [1]: did not respond

Molecule: CCCCCCCCCCCCCCCC(O)C(N)COP(=O)(O)O (stereo not drawn) [dihydro-S-1-P, di-hydro sphingosine 1-phosphate]
EC50 (human EDG-1c receptor [6]): 0.01 to 0.02 µM

Molecule: sphingosine phosphorylcholine
EC50, calcium mobilization through the EDG1-c receptor (in words) (human EDG-1c receptor [6]; best clones, FIG. 8): in the uM range | calcium mobilization response of RBL 2H3 EDG-1c cells (human EDG-1c receptor [6]; best clones, FIG. 8): weakly

The next lines start with results.

expression of beta-galactosidase (FUS1-LacZ reporter response) (human EDG-1c receptor [3]): receptor-dependent response | EC50 (human EDG-1c receptor [6]; several RBL 2H3 EDG1-c clones, FIG. 7, read-out: EC50, calcium mobilization, best clones): 0.01 to 0.02 µM
Molecule: CCCCCCCCCCCCC/C=C/[C@@H](O)[C@@H](N)COP(=O)(O)O [S-1-P, sphingosine 1-phosphate]
calcium mobilization response [2]: robust calcium mobilization response | cellular hypertrophy (increase of protein content, phenylalanine incorporation and BNP secretion to control cell values) ([4]; 10 nM, 100 nM and 1 μM (n=3), each concentration): induced a cellular hypertrophy | increase of phenylalanine incorporation to the control cell values ([4]; 1 μM (n=3)): 30.1%±9.2 | increase of protein content to the control cell values ([4]; 1 μM (n=3)): 35.6%±6.3 | increase of thymidine incorporation to the control cell values ([4]; 1 μM (n=3)): 11.4%±1.8 | BNP secretion vs. control ([4]; S-1-P treated cardiomyocyte vs. control): four fold higher | LVEDP (left ventricular end-diastolic pressure) [5]: marked reduction | increase in AoP (aortic pressure), vasoconstrictor effect ([5]; at 5 min of treatment, compared to the vehicle (methanol 0.001%)): about 30% | inotropic effect (pressure value) ([5]; at 10 min of drug administration, controls 96.09±6 mm Hg): 84.7±6.3 mm Hg

EC50 of endogenous-receptor ligands [1]: expected EC50 values
Molecule: CCCCC/C=C\C\C=C/C=C/C=C/[C@@H](SC[C@H](N)C(=O)NCC(=O)O)[C@@H](O)CCCC(=O)O [leukotriene D4]

calcium mobilization response of RBL 2H3 EDG-1c cells (human EDG-1c receptor [6]; best clones, FIG. 8): did not respond
Molecule: lysophosphatidic acid
